Assay results as given in US11111233B2, “Amino pyrimidine compound for inhibiting protein tyrosine kinase activity” (Shenzhen TargetRx, Inc., priority 2016, dated 2021).
pIC50: −log10 of the molar value. Read-outs that look alike come from different tables or passages of the source.

How the values were obtained:
[1] = target: WT EGFR (Homo sapiens (Human), UniProt P00533); test: Kinase inhibition assay (HTRF), WT EGFR; assay type: biochemical; details: HTRF Kinase TK kit, 10 min pre-incubation, 20 min reaction
[2] = target: EGFR [L858R/T790M] (Homo sapiens (Human), UniProt P00533, L858R/T790M); test: Kinase inhibition assay (HTRF), EGFR [L858R/T790M]; assay type: biochemical; details: HTRF Kinase TK kit, 10 min pre-incubation, 20 min reaction; read-out: EGFR(L858R/T790M) IC50
[3] = test system: Skin cancer cell line A431 (WT); test: Cytotoxicity test (MTS cell viability), A431; assay type: cell-based; details: Homo sapiens, A-431; MTS, 72 hours; read-out: A431 (WT) IC50
[4] = test system: lung cancer cells HCC827 (Del19); test: Cytotoxicity test (MTS cell viability), HCC827; assay type: cell-based; details: Homo sapiens; for pIC50: HCC827, MTS, 72 hours, read-out: HCC827 (Del19) IC50; for IC50: HCC827, 72 h, read-out: HCC827 (Del19) IC50(nM)

Sequence of EGFR [L858R/T790M] (P00533 25-1210 T790M/L858R): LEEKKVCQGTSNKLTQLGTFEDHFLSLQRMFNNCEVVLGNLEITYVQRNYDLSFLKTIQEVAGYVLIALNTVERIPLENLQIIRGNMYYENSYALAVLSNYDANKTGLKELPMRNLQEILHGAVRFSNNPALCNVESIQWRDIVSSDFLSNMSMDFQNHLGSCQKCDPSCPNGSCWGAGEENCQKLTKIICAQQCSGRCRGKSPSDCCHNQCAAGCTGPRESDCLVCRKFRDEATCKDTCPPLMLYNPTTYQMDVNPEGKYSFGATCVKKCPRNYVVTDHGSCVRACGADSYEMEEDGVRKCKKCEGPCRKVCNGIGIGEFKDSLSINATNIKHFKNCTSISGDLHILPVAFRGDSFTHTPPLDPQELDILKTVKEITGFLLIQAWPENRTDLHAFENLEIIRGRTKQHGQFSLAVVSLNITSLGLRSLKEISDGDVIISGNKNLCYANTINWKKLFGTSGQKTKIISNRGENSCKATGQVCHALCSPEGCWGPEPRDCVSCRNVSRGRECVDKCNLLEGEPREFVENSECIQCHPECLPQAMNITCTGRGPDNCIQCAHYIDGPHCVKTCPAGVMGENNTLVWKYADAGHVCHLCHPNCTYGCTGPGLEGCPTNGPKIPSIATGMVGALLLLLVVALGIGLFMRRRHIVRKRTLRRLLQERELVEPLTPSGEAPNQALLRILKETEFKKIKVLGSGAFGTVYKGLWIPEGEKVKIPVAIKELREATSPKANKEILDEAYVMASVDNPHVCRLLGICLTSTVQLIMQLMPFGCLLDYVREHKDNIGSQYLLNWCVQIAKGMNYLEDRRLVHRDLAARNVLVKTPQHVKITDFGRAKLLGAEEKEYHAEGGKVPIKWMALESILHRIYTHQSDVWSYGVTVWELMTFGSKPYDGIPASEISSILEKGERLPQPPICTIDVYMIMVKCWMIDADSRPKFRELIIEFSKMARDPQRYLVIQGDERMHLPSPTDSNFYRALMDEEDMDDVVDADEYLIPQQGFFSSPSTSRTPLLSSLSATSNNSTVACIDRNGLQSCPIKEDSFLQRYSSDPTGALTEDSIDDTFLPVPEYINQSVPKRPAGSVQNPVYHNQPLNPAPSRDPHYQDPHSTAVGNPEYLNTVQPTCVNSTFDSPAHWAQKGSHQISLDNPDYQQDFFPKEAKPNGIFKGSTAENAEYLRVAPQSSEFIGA
Sequence of WT EGFR (P00533 25-1210): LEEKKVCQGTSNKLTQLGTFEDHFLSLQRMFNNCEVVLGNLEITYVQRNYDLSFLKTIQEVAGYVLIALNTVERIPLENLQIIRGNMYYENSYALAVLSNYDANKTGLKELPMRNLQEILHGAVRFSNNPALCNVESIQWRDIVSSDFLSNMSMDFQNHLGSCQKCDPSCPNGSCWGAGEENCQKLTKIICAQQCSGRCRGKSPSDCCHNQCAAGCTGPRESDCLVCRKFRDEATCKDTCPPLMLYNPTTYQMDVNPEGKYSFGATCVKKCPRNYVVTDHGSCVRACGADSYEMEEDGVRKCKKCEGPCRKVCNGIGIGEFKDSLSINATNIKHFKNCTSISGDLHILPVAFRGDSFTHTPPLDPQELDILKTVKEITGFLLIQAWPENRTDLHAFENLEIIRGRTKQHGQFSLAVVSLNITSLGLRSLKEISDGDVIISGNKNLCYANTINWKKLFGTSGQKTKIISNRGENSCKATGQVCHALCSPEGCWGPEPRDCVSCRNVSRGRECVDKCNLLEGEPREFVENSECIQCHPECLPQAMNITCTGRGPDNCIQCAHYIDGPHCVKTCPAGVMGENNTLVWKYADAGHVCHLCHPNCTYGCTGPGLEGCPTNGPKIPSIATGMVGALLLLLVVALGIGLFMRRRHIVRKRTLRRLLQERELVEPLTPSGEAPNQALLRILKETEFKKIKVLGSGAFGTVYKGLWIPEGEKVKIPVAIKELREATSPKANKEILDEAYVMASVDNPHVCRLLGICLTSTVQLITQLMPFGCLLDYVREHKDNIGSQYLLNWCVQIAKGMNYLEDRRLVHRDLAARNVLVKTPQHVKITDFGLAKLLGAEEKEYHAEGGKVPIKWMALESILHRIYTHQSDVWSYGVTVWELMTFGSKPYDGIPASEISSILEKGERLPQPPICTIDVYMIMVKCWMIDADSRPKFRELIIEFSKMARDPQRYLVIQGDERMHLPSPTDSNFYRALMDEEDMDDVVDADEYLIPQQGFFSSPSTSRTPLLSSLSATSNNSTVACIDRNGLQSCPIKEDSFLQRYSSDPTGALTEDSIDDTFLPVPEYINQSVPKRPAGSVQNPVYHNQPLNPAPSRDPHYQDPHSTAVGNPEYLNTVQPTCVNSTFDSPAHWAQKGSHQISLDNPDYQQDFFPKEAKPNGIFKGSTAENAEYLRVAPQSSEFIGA

Compound | pIC50 [1] | pIC50 [2] | pIC50 [3] | pIC50 [4] | IC50 [4] [nM]
C=CC(=O)Nc1cc(Nc2nccc(-c3cc4c5c(c3)nc(OC)n5CCC4)n2)c(OC)cc1N(C)CCN(C)C [Example 45, N-(2-((2-(dimethylamino)ethyl)(methyl)amino)-4-methoxy-5-((4-(2-methoxy-5,6-dihydro-4H-imidazo[4,5,1-ij]quinolin-8-yl)pyrimidin-2-yl)amino)phenyl)acrylamide] | 7.30 to 9.00 | > 9.00 | 6.00 to 6.40 | 7.00 to 8.00 | –
C=CC(=O)Nc1cc(Nc2nccc(-c3ccc4ncsc4c3)n2)c(OC)cc1N(C)CCN(C)C [Example 46, N-(5-((4-(benzo[d]thiazol-6-yl)pyrimidin-2-yl)amino)-2-((2-(dimethylamino)ethyl)(methyl)amino)-4-methoxyphenyl)acrylamide] | 7.30 to 9.00 | > 9.00 | 6.40 to 7.00 | 7.00 to 8.00 | –
C=CC(=O)Nc1cc(Nc2nccc(-c3cc(F)c4nc(C)n(C(C)C)c4c3)n2)c(OCC)cc1N(C)CCN(C)C [Example 48, N-(2-((2-(dimethylamino)ethyl)(methyl)amino)-4-ethoxy-5-((4-(4-fluoro-1-isopropyl-2-methyl-1H-benzo[d]imidazole-6-yl)pyrimidin-2-yl)amino)phenyl)acrylamide] | 7.30 to 9.00 | > 9.00 | 6.00 to 6.40 | – | < 10
C=CC(=O)Nc1cc(Nc2nccc(-c3cc(F)c4nc(C)n(C(C)C)c4c3)n2)c(OCC(F)(F)F)cc1N(C)CCN(C)C [Example 49, N-(2-((2-(dimethylamino)ethyl)(methyl)amino)-5-((4-(4-fluoro-1-isopropyl-2-methyl-1H-benzo[d]imidazole-6-yl)pyrimidin-2-yl)amino)-4-(2,2,2-trifluoroethoxy)phenyl)acrylamide] | > 9.00 | > 9.00 | 7.00 to 8.00 | – | < 10
[2H]C([2H])([2H])c1nc2ccc(-c3ccnc(Nc4cc(NC(=O)C=C)c(N(C)CCN(C)C)cc4OC)n3)cc2n1C(C)C [Example 50, N-(2-((2-(dimethylamino)ethyl)(methyl)amino)-5-((4-(1-isopropyl-2-(methyl-d3)-1H-benzo[d]imidazole-6-yl)pyrimidin-2-yl)amino)-4-methoxyphenyl)acrylamide] | 7.30 to 9.00 | 7.30 to 9.00 | 6.40 to 7.00 | 7.00 to 8.00 | –
[2H]C(C)(C)n1c(C)nc2ccc(-c3ccnc(Nc4cc(NC(=O)C=C)c(N(C)CCN(C)C)cc4OC)n3)cc21 [Example 51, N-(2-((2-(dimethylamino)ethyl)(methyl)amino)-4-methoxy-5-((4-(2-methyl-1-(propyl-2-yl-2-d)-1H-benzo[d]imidazole-6-yl)pyrimidin-2-yl)amino)phenyl)acrylamide] | 7.30 to 9.00 | 7.30 to 9.00 | 6.40 to 7.00 | 7.00 to 8.00 | –
[2H]C([2H])([2H])C(n1c(C)nc2ccc(-c3ccnc(Nc4cc(NC(=O)C=C)c(N(C)CCN(C)C)cc4OC)n3)cc21)C([2H])([2H])[2H] [Example 52, N-(2-((2-(dimethylamino)ethyl)(methyl)amino)-4-methoxy-5-((4-(2-methyl-1-(propyl-2-yl-1,1,1,3,3,3-d6)-1H-benzo[d]imidazole-6-yl)pyrimidin-2-yl)amino)phenyl)acrylamide] | 7.30 to 9.00 | > 9.00 | 6.40 to 7.00 | > 8.00 | –
C=CC(=O)Nc1cc(Nc2nccc(-c3cc(F)c4nc(C)n(C(C)C)c4c3)n2)c(OC)cc1N(C)CCN(C)C [Example 53, N-(2-((2-(dimethylamino)ethyl)(methyl)amino)-5-((4-(4-fluoro-1-isopropyl-2-methyl-1H-benzo[d]imidazole-6-yl)pyrimidin-2-yl)amino)-4-methoxyphenyl)acrylamide] | 7.30 to 9.00 | > 9.00 | 6.00 to 6.40 | > 8.00 | –
COc1cc(N2CCN(C)CC2)ccc1Nc1ncc(F)c(-c2cc(F)c3nc(C)n(C(C)C)c3c2)n1 [Example 55, 5-fluoro-4-(4-fluoro-1-isopropyl-2-methyl-1H-benzo[d]imidazole-6-yl)-N-(2-methoxy-4-(4-methylpiperazin-1-yl)phenyl)pyrimidin-2-amine] | 7.30 to 9.00 | 7.30 to 9.00 | 6.00 to 6.40 | 6.00 to 6.40 | –
C=CC(=O)Nc1cc(Nc2ncc(F)c(-c3cc(F)c4nc(C)c(C(=C)C)n4c3)n2)c(OC)cc1N(C)CCN(C)C [Example 56, N-(2-((2-(dimethylamino)ethyl)(methyl)amino)-5-((5-fluoro-4-(8-fluoro-2-methyl-3-(prop-1-en-2-yl)imidazo[1,2-a]pyridine-6-yl)pyrimidin-2-yl)amino)-4-methoxyphenyl)acrylamide] | 7.30 to 9.00 | 7.30 to 9.00 | < 6.00 | 7.00 to 8.00 | –
C=C(C)c1c(C)nc2c(F)cc(-c3nc(Nc4ccc(N5CCN(C)CC5)cc4OC)ncc3F)cn12 [Example 57, 5-fluoro-4-(8-fluoro-2-methyl-3-(prop-1-en-2-yl)imidazo[1,2-a]pyridine-6-yl)-N-(2-methoxy-4-(4-methylpiperazin-1-yl)phenyl)pyrimidin-2-amine] | < 7.00 | 7.30 to 9.00 | < 6.00 | < 6.00 | –
COc1cc(N2CCN(C)CC2)ccc1Nc1ncc(F)c(-c2cc(F)c3nc(C)cn3c2)n1 [Example 58, 5-fluoro-4-(8-fluoro-2-methylimidazo[1,2-a]pyridine-6-yl)-N-(2-methoxy-4-(4-methylpiperazin-1-yl)phenyl)pyrimidin-2-amine] | < 7.00 | < 7.00 | < 6.00 | < 6.00 | –
COc1cc(N2CCN(C)CC2)ccc1Nc1ncc(F)c(-c2cc(F)c3nc(C)c(C(C)C)n3c2)n1 [Example 59, 5-fluoro-4-(8-fluoro-3-isopropyl-2-methylimidazo[1,2-a]pyridine-6-yl)-N-(2-methoxy-4-(4-methylpiperazin-1-yl)phenyl)pyrimidin-2-amine] | < 7.00 | 7.00 to 7.30 | < 6.00 | < 6.00 | –
C=CC(=O)Nc1cc(Nc2nccc(-c3cc(F)c4nc(C(F)F)n(C(C)C)c4c3)n2)c(OC)cc1N(C)CCN(C)C [Example 60, N-(5-((4-(2-(difluoromethyl)-4-fluoro-1-isopropyl-1H-benzo[d]imidazol-6-yl)pyrimidin-2-yl)amino)-2-((2-(dimethylamino)ethyl)(methyl)amino)-4-methoxyphenyl)acrylamide] | 7.30 to 9.00 | > 9.00 | 6.00 to 6.40 | 7.00 to 8.00 | –
C=CC(=O)Nc1cc(Nc2nccc(-c3cc(F)c4nc(OC(C)C)n(C(C)C)c4c3)n2)c(OC)cc1N(C)CCN(C)C [Example 61, N-(2-((2-(dimethylamino)ethyl)(methyl)amino)-5-((4-(4-fluoro-2-isopropoxy-1-isopropyl-1H-benzo[d]imidazol-6-yl)pyrimidin-2-yl)amino)-4-methoxyphenyl)acrylamide] | 7.30 to 9.00 | 7.30 to 9.00 | 6.40 to 7.00 | 7.00 to 8.00 | –
C=CC(=O)Nc1cc(Nc2nccc(-c3cc(F)c4nc(OCC)n(C(C)C)c4c3)n2)c(OC)cc1N(C)CCN(C)C [Example 62, N-(2-((2-(dimethylamino)ethyl)(methyl)amino)-5-((4-(2-ethoxy-4-fluoro-1-isopropyl-1H-benzo[d]imidazol-6-yl)pyrimidin-2-yl)amino)-4-methoxyphenyl)acrylamide] | 7.30 to 9.00 | > 9.00 | < 6.00 | 7.00 to 8.00 | –
C=CC(=O)Nc1cc(Nc2nccc(-c3cc(F)c4nc(SC)n(C(C)C)c4c3)n2)c(OC)cc1N(C)CCN(C)C [Example 63, N-(2-((2-(dimethylamino)ethyl)(methyl)amino)-5-((4-(4-fluoro-1-isopropyl-2-(methylthio)-1H-benzo[d]imidazol-6-yl)pyrimidin-2-yl)amino)-4-methoxyphenyl)acrylamide] | 7.30 to 9.00 | > 9.00 | < 6.00 | 7.00 to 8.00 | –
C=CC(=O)Nc1cc(Nc2nccc(-c3cc(F)c4nc(OCC(F)F)n(C(C)C)c4c3)n2)c(OC)cc1N(C)CCN(C)C [Example 64, N-(5-((4-(2-(2,2-difluoroethoxy)-4-fluoro-1-isopropyl-1H-benzo[d]imidazol-6-yl)pyrimidin-2-yl)amino)-2-((2-(dimethylamino)ethyl)(methyl)amino)-4-methoxyphenyl)acrylamide] | 7.30 to 9.00 | > 9.00 | 6.40 to 7.00 | 7.00 to 8.00 | –
C=CC(=O)Nc1cc(Nc2nccc(-c3cc(F)c4nc(COC)n(C(C)C)c4c3)n2)c(OC)cc1N(C)CCN(C)C [Example 65, N-(2-((2-(dimethylamino)ethyl)(methyl)amino)-5-((4-(4-fluoro-1-isopropyl-2-(methoxymethyl)-1H-benzo[d]imidazol-6-yl)pyrimidin-2-yl)amino)-4-methoxyphenyl)acrylamide] | 7.30 to 9.00 | > 9.00 | 6.40 to 7.00 | > 8.00 | –
C=CC(=O)Nc1cc(Nc2nccc(-c3cc(F)c4nc5n(c4c3)CC(C)(C)O5)n2)c(OC)cc1N(C)CCN(C)C [Example 66, N-(2-((2-(dimethylamino)ethyl)(methyl)amino)-5-((4-(8-fluoro-2,2-dimethyl-2,3-dihydrobenzo[4,5]imidazo[2,1-b]oxazol-6-yl)pyrimidin-2-yl)amino)-4-methoxyphenyl)acrylamide] | 7.30 to 9.00 | 7.30 to 9.00 | 6.00 to 6.40 | 7.00 to 8.00 | –
